Bounds are passed on as bounds.

The first experiment deals with 20032 (donor line of iPSC-derived cardiomyocytes). The experiment in a line: POD (EC05) for increase in beat frequency (positive chronotrope) vs vehicle; higher = less potent (higher point of departure). The note with it: exposure time: 90 min. On the procedure:
(§1)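 Human iPSC-derived cardiomyocytes from 16 donors were exposed for 90 min at 37 °C to each PFAS at 0.1, 1, 10 and 100 µM in 0.5% DMSO, 384-well plates. Kinetic Ca2+ flux (FLIPR) and Hoechst nuclei counts were normalised to vehicle wells and fitted with a hierarchical Bayesian Hill model to give donor-specific PODs: EC05 for beat-rate increase or decrease and for decay-to-rise ratio increase (QT proxy), EC95 for peak-frequency loss (asystole), EC10 for total cell number loss. 0.03 µM is the lower bound.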
As for `NC(=O)C(F)(F)C(F)(F)C(F)(F)F` [Heptafluorobutyramide], the POD vs vehicle was over 100 µM.
Still for that read-out and setting: to `OCC(F)(F)C(F)(F)C(F)(F)CO` [Hexafluoroamylene_glycol] belongs over 100 µM; to `COC(=O)C(F)(F)C(F)(F)OC(F)(C(F)(F)F)C(F)(F)OC(F)=C(F)F` (stereo not drawn) [Methyl_perfluoro(3-(1-ethenyloxypropan-2-yloxy)propanoate)], over 100 µM; to `NC(=O)C(F)(F)C(F)(F)C(F)(F)C(F)(F)F` [Nonafluoropentanamide], over 100 µM.
The same measure, in the same setting: to `NC(=O)C(F)(F)C(F)(F)C(F)(F)C(F)(F)C(N)=O` [Octafluoroadipamide] belongs over 100 µM; to `O=C(O)C(F)(F)C(F)(F)C(F)(F)C(F)(F)C(=O)O` [Octafluoroadipic_acid], over 100 µM.
The molecule `O=C(O)C(F)(F)C(F)(F)C(F)(F)OC(F)(F)F` [Perfluoro(4-methoxybutanoic)_acid] came in with a POD vs vehicle of over 100 µM.
On the same count and under the same terms, the figure for `O=C(O)C(F)(F)OC(F)(F)C(F)(F)OC(F)(F)C(F)(F)OC(F)(F)C(F)(F)C(F)(F)C(F)(F)F` [Perfluoro-3,6,9-trioxatridecanoic_acid] is over 100 µM; for `O=C(O)C(F)(F)OC(F)(F)C(F)(F)OC(F)(F)F` [Perfluoro-3,6-dioxaheptanoic_acid] it is over 100 µM.
The same measure, in the same setting: to `O=C(O)C(F)(F)OC(F)(F)C(F)(F)OC(F)(F)C(=O)O` [Perfluoro-3,6-dioxaoctane-1,8-dioic_acid] belongs over 100 µM.

Another experiment concerns 1309 (donor line of iPSC-derived cardiomyocytes). The experiment is described as above. To be noted: exposure time: 90 min. On the procedure:
as §1
`OCC(F)(F)C(F)(F)C(F)(F)C(F)(F)C(F)(F)C(F)(F)F` [6:1 Fluorotelomer alcohol] gave a POD vs vehicle of over 100 µM.
`OCCC(F)(F)C(F)(F)C(F)(F)C(F)(F)C(F)(F)C(F)(F)F` [6:2 Fluorotelomer alcohol]: the POD vs vehicle was over 100 µM.
`O=S(=O)(O)CCC(F)(F)C(F)(F)C(F)(F)C(F)(F)C(F)(F)C(F)(F)F` [6:2 Fluorotelomer sulfonic acid] registered a POD vs vehicle of over 100 µM.
On the same count and under the same terms, the figure for `OCCC(F)(F)C(F)(F)C(F)(F)C(F)(F)C(F)(F)C(F)(F)C(F)(F)C(F)(F)F` [8:2 Fluorotelomer alcohol] is over 100 µM.
For `O=S(=O)(O)CCC(F)(F)C(F)(F)C(F)(F)C(F)(F)C(F)(F)C(F)(F)C(F)(F)C(F)(F)F` [8:2 Fluorotelomer sulfonic acid], the POD vs vehicle is over 100 µM.
Same read-out and setting: the figure for `O=C(O)C(F)(F)C(F)(F)C(F)(F)C(F)(F)C(F)(F)C(F)(F)C(F)(F)C(F)(F)Cl` [9-Chloro-perfluorononanoic_acid] is over 100 µM; for `O=P(O)(O)CCC(F)(F)C(F)(F)C(F)(F)C(F)(F)C(F)(F)C(F)(F)C(F)(F)C(F)(F)F` [((Perfluorooctyl)ethyl)phosphonic_acid] it is over 100 µM; for `OCC(F)(F)C(F)(F)C(F)(F)C(F)(F)C(F)(F)C(F)F` [Dodecafluoroheptanol] it is over 100 µM.
On the same count and under the same terms, the figure for `OCC(F)(F)C(F)(F)C(F)(F)F` [Heptafluorobutanol] is over 100 µM; for `NC(=O)C(F)(F)C(F)(F)C(F)(F)F` [Heptafluorobutyramide] it is over 100 µM.
Still for that read-out and setting: the figure for `OCC(F)(F)C(F)(F)C(F)(F)CO` [Hexafluoroamylene_glycol] is over 100 µM; for `COC(=O)C(F)(F)C(F)(F)OC(F)(C(F)(F)F)C(F)(F)OC(F)=C(F)F` (stereo not drawn) [Methyl_perfluoro(3-(1-ethenyloxypropan-2-yloxy)propanoate)] it is over 100 µM.
For the molecule `NC(=O)C(F)(F)C(F)(F)C(F)(F)C(F)(F)F` [Nonafluoropentanamide], the POD vs vehicle was over 100 µM.
On the same count and under the same terms, to `NC(=O)C(F)(F)C(F)(F)C(F)(F)C(F)(F)C(N)=O` [Octafluoroadipamide] belongs over 100 µM.
The same measure, in the same setting: to `O=C(O)C(F)(F)C(F)(F)C(F)(F)C(F)(F)C(=O)O` [Octafluoroadipic_acid] belongs over 100 µM.
For `O=C(O)C(F)(F)C(F)(F)C(F)(F)OC(F)(F)F` [Perfluoro(4-methoxybutanoic)_acid], the POD vs vehicle is over 100 µM.
On the same count and under the same terms, the figure for `O=C(O)C(F)(F)OC(F)(F)C(F)(F)OC(F)(F)C(F)(F)OC(F)(F)C(F)(F)C(F)(F)C(F)(F)F` [Perfluoro-3,6,9-trioxatridecanoic_acid] is over 100 µM; for `O=C(O)C(F)(F)OC(F)(F)C(F)(F)OC(F)(F)F` [Perfluoro-3,6-dioxaheptanoic_acid] it is over 100 µM.
Same read-out and setting: to `O=C(O)C(F)(F)OC(F)(F)C(F)(F)OC(F)(F)C(=O)O` [Perfluoro-3,6-dioxaoctane-1,8-dioic_acid] belongs over 100 µM.

A further experiment concerns 1518 (donor line of iPSC-derived cardiomyocytes). The experiment is described as above. To be noted: exposure time: 90 min. On the procedure: as §1
The molecule `OCC(F)(F)C(F)(F)C(F)(F)C(F)(F)C(F)(F)C(F)(F)F` [6:1 Fluorotelomer alcohol] had a POD vs vehicle of over 100 µM.
Molecule `OCCC(F)(F)C(F)(F)C(F)(F)C(F)(F)C(F)(F)C(F)(F)F` [6:2 Fluorotelomer alcohol] displayed a POD vs vehicle of over 100 µM.
Same read-out and setting: the figure for `O=S(=O)(O)CCC(F)(F)C(F)(F)C(F)(F)C(F)(F)C(F)(F)C(F)(F)F` [6:2 Fluorotelomer sulfonic acid] is over 100 µM; for `OCCC(F)(F)C(F)(F)C(F)(F)C(F)(F)C(F)(F)C(F)(F)C(F)(F)C(F)(F)F` [8:2 Fluorotelomer alcohol] it is over 100 µM.
Turning to `O=S(=O)(O)CCC(F)(F)C(F)(F)C(F)(F)C(F)(F)C(F)(F)C(F)(F)C(F)(F)C(F)(F)F` [8:2 Fluorotelomer sulfonic acid], the POD vs vehicle was over 100 µM.
On to `O=C(O)C(F)(F)C(F)(F)C(F)(F)C(F)(F)C(F)(F)C(F)(F)C(F)(F)C(F)(F)Cl` [9-Chloro-perfluorononanoic_acid], for which the POD vs vehicle was over 100 µM.
Molecule `O=P(O)(O)CCC(F)(F)C(F)(F)C(F)(F)C(F)(F)C(F)(F)C(F)(F)C(F)(F)C(F)(F)F` [((Perfluorooctyl)ethyl)phosphonic_acid] yielded a POD vs vehicle of over 100 µM.
Molecule `OCC(F)(F)C(F)(F)C(F)(F)C(F)(F)C(F)(F)C(F)F` [Dodecafluoroheptanol] displayed a POD vs vehicle of over 100 µM.
Take `OCC(F)(F)C(F)(F)C(F)(F)F` [Heptafluorobutanol]: the POD vs vehicle was over 100 µM.
On the same count and under the same terms, the figure for `NC(=O)C(F)(F)C(F)(F)C(F)(F)F` [Heptafluorobutyramide] is over 100 µM; for `OCC(F)(F)C(F)(F)C(F)(F)CO` [Hexafluoroamylene_glycol] it is over 100 µM.
Still for that read-out and setting: to `COC(=O)C(F)(F)C(F)(F)OC(F)(C(F)(F)F)C(F)(F)OC(F)=C(F)F` (stereo not drawn) [Methyl_perfluoro(3-(1-ethenyloxypropan-2-yloxy)propanoate)] belongs over 100 µM.
On the same count and under the same terms, to `NC(=O)C(F)(F)C(F)(F)C(F)(F)C(F)(F)F` [Nonafluoropentanamide] belongs over 100 µM.
Consider `NC(=O)C(F)(F)C(F)(F)C(F)(F)C(F)(F)C(N)=O` [Octafluoroadipamide], for which the POD vs vehicle was over 100 µM.
Molecule `O=C(O)C(F)(F)C(F)(F)C(F)(F)C(F)(F)C(=O)O` [Octafluoroadipic_acid] displayed a POD vs vehicle of over 100 µM.
Still for that read-out and setting: the figure for `O=C(O)C(F)(F)C(F)(F)C(F)(F)OC(F)(F)F` [Perfluoro(4-methoxybutanoic)_acid] is over 100 µM; for `O=C(O)C(F)(F)OC(F)(F)C(F)(F)OC(F)(F)C(F)(F)OC(F)(F)C(F)(F)C(F)(F)C(F)(F)F` [Perfluoro-3,6,9-trioxatridecanoic_acid] it is over 100 µM.
The molecule `O=C(O)C(F)(F)OC(F)(F)C(F)(F)OC(F)(F)F` [Perfluoro-3,6-dioxaheptanoic_acid] had a POD vs vehicle of over 100 µM.
On the same count and under the same terms, the figure for `O=C(O)C(F)(F)OC(F)(F)C(F)(F)OC(F)(F)C(=O)O` [Perfluoro-3,6-dioxaoctane-1,8-dioic_acid] is 28 µM.

The record behind these values is the supplement of paper PMC11368000.
